Reference: PubChem BioAssay (NCI)
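Exposure lasted 48 hours, with cells grown in 96-well plates and compounds tested at five concentrations. TGI: total growth inhibition.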

Legend:
Test in all cases: DTP human tumour cell line panel, 48 h
UO-31 renal = test system: UO-31 renal
EKVX NSCLC = test system: EKVX NSCLC
HOP-92 NSCLC = test system: HOP-92 NSCLC
ACHN renal = test system: ACHN renal
OVCAR-8 ovarian = test system: OVCAR-8 ovarian
NCI-H226 lung = test system: NCI-H226 lung
SNB-19 CNS = test system: SNB-19 CNS
HCC-2998 colon = test system: HCC-2998 colon
OVCAR-4 ovarian = test system: OVCAR-4 ovarian
SF-539 CNS = test system: SF-539 CNS
786-0 renal = test system: 786-0 renal

SMILES	TGI (UO-31 renal) [µM]	TGI (EKVX NSCLC) [µM]	TGI (HOP-92 NSCLC) [µM]	TGI (ACHN renal) [µM]	TGI (OVCAR-8 ovarian) [µM]	TGI (NCI-H226 lung) [µM]	TGI (SNB-19 CNS) [µM]	TGI (HCC-2998 colon) [µM]	TGI (OVCAR-4 ovarian) [µM]	TGI (SF-539 CNS) [µM]	TGI (786-0 renal) [µM]
O=c1[nH]c(=O)n(Cc2ccccc2CO)cc1Sc1ccccc1	22.9	60.8	> 100	96.4	48.2	43.8	> 100	30.8	> 100	93.9	> 100
CCCCCCCCCCCCCCCCCCNc1ccn(C2OC(COP(=O)(O)OCC3OC(n4cc(C)c(=O)[nH]c4=O)CC3N=[N+]=[N-])C(O)C2O)c(=O)n1 (centres undefined)	58.8	48.5	> 100	> 100	48.8	43.7	59.7	29.9	83.9	33.8	> 100
CCCCc1ccc(Nc2ncc3[nH]cnc3n2)cc1	37.9	98.1	49.7	31.7	36.3	45.4	44.4	37.8	80.1	56.5	54.3
CN(C)CCNC(=O)c1cccc2nc3c(nc12)-c1ccccc1C3=O	39.1	48.6	40.9	32.1	62.7	39.6	47.6	38.1	58.2	27	30.2
Cc1sc(/N=C/c2c[nH]c3ccccc23)c(C#N)c1C	> 100	> 100	> 100	> 100	> 100	> 100	> 100	70.5	> 100	> 100	> 100
COC(OC)C1OC(CO)C(n2ccc(N)nc2=O)C1O (centres undefined)	> 100	> 100	> 100	> 100	> 100	> 100	> 100	> 100	> 100	> 100	> 100
O=C1C(Br)=CC2(C=C1Br)CCNC1=C2C(=O)c2cccnc2C1=O	68.5	28.5	30.2	48.9	32.4	36.9	20	31.9	31.2	20.9	29.3
C=C(C)C(=O)[C@@]12C(=O)[C@@H](C)CC[C@H]1[C@H](C)C[C@@H]2C=C(C)C	43	93.1	> 100	25.6	> 100	> 100	32.5	28	> 100	47.4	42.4
Fc1ccc(N=NN2CCCC2)cc1	> 100	> 100	> 100	> 100		> 100	> 100	> 100	> 100	> 100	> 100
CC(C)(C)C1(COC(=O)c2ccc(N)cc2)COC1	> 100	> 100	> 100	> 100	> 100	> 100	> 100	> 100	> 100	> 100	> 100
